From patent US7994209B2, “3-phenoxymethylpyrrolidine compounds” (Theravance, Inc., priority 2009, dated 2011) come the findings set out here.

Usually Ki stands for a measure of affinity in units of concentration, obtained from inhibition or displacement. A high value points to lower affinity.

Molecules are shown by their SMILES.

Experiment [1] deals with T1, hNET (Homo sapiens, UniProt P23975). Put plainly: hNET membrane radioligand binding assay (3H-nisoxetine), Assay 1.
The target of experiment [2] is T2, hSERT (Homo sapiens, UniProt P31645). Put plainly: hSERT neurotransmitter uptake assay (3H-5-HT), Assay 2. It is filed as cell-based. Details: expressed in transfected cells; host or cells: HEK-293. As to conditions: serotonin reuptake inhibition, 3H-5-HT uptake, HEK-293 hSERT cells (values without asterisk); read-out: SERT pIC50 (converted).
T2 sequence (P31645 whole entry): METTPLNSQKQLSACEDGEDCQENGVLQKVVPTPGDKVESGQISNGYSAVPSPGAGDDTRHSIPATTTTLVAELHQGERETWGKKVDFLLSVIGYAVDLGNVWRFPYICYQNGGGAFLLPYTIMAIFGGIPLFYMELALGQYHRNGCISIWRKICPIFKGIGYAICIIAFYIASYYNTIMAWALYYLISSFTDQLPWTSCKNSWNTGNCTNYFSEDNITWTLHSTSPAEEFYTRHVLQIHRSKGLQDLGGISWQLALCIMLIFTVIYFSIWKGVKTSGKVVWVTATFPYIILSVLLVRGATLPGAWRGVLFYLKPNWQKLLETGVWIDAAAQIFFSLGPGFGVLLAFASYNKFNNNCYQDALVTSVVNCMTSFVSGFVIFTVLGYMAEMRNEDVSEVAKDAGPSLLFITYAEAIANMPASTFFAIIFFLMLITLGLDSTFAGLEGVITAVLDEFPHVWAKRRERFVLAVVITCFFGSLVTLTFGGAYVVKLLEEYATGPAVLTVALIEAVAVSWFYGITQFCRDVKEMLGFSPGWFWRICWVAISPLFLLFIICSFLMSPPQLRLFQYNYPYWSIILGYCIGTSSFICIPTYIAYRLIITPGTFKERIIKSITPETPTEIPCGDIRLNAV
Experiment [3] deals with T1, hNET. Put plainly: hNET neurotransmitter uptake assay (3H-NE), Assay 2. The experiment is classed as cell-based. Details: expressed in transfected cells; host or cells: HEK-293. As to conditions: norepinephrine reuptake inhibition, 3H-NE uptake, HEK-293 hNET cells (values without asterisk); read-out: NET pIC50 (converted).
In experiment [4] the target is T2, hSERT. Nature of the experiment: hSERT membrane radioligand binding assay (3H-citalopram), Assay 1. Particulars: SERT pKi, hSERT HEK-293 membranes, 1.0 nM 3H-citalopram; values given as lower bounds.

T1 sequence (P23975 whole entry): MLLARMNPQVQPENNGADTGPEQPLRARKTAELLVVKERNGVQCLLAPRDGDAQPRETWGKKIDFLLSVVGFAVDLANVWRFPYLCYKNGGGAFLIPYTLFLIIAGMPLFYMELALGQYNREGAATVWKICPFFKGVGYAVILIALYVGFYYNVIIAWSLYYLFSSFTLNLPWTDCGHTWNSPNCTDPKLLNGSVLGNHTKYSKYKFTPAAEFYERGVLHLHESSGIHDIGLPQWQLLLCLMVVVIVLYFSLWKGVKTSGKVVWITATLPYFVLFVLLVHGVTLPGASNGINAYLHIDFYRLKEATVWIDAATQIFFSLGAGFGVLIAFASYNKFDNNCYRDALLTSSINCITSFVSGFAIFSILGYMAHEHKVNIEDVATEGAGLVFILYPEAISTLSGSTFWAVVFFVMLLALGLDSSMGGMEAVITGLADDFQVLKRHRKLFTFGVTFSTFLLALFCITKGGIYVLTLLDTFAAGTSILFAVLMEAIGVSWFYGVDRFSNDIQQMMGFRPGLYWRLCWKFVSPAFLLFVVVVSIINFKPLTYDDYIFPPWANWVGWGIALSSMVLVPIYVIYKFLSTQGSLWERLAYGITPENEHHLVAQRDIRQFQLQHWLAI

With `Clc1ccc(Cl)c(O[C@@H](C2CC2)[C@H]2CCNC2)c1Cl` [Example 16-58, (S)-3-[(S)cyclopropyl-(2,3,6-trichlorophenoxy)methyl]pyrrolidine], the Ki on hNET [1] and on hSERT [4] was not above 10 nM each time. Further, the IC50 at hSERT [2] was not above 100 nM; at hNET [3] it was not above 10 nM.

Take `CC[C@H](Oc1ccc(Cl)cc1Cl)[C@H]1CCNC1` [Example 1, (S)-3-[(S)-1-(2,4-Dichlorophenoxy)propyl]pyrrolidine]: the Ki on hNET [1] and on hSERT [4] was not above 10 nM each time. Further, the IC50 on hSERT [2] and on hNET [3] was not above 10 nM each time.

Take `CC(C)C[C@H](Oc1ccc(F)cc1)[C@H]1CCNC1` [Example 10-8, (S)-3-[(S)-1-(4-Fluorophenoxy)-3-methylbutyl]pyrrolidine]: the Ki at hNET [1] and on hSERT [4] was not above 10 nM throughout. Moreover, the IC50 was not above 100 nM at hSERT [2] and not above 10 nM on hNET [3].

Consider `Clc1cc(Cl)cc(O[C@@H](C2CC2)[C@H]2CCNC2)c1` [Example 16-96, (S)-3-[(S)cyclopropyl-(3,5-dichlorophenoxy)methyl]pyrrolidine], for which the Ki on hNET [1] and on hSERT [4] was not above 10 nM each time. For the same compound, the IC50 at hSERT [2] and on hNET [3] was not above 10 nM in each case.

As to `CC[C@H](Oc1ccc(F)cc1OC)[C@H]1CCNC1` [Example 2-69, (S)-3-[(S)-1-(4-Fluoro-2-methoxyphenoxy)propyl]pyrrolidine], the Ki on hNET [1] was not above 10 nM; on hSERT [4], not above 100 nM. The IC50 on hSERT [2] and at hNET [3] was not above 100 nM in each case.

For `CC(C)CC(Oc1cc(Cl)cc(Cl)c1)C1CCNC1` (centres unmarked) [Example 10-78, 3-[1-(3,5-Dichlorophenoxy)-3-methylbutyl]pyrrolidine], the inhibition constant Ki on hNET [1] and at hSERT [4] was not above 10 nM throughout. Besides, the IC50 at hSERT [2] and at hNET [3] was not above 10 nM in each case.

Take `CC(C)C[C@H](Oc1ccc(Cl)c(F)c1F)[C@H]1CCNC1` [Example 10-68, (S)-3-[(S)-1-(4-Chloro-2,3-difluorophenoxy)-3-methylbutyl]pyrrolidine]: the Ki at hNET [1] and at hSERT [4] was not above 10 nM each time. The IC50 at hSERT [2] and on hNET [3] was not above 10 nM throughout.

As for `CCC[C@H](Oc1ccc(Cl)cc1)[C@H]1CCNC1` [Example 4-1, (S)-3-[(S)-1-(4-Chlorophenoxy)butyl]pyrrolidine], the Ki at hNET [1] and on hSERT [4] was not above 10 nM in each case. Further, the IC50 on hSERT [2] and on hNET [3] was not above 10 nM each time.

As for `CC(C)C[C@H](Oc1cccc(C(F)(F)F)c1Cl)[C@H]1CCNC1` [Example 10-30, (S)-3-[(S)-1-(2-Chloro-3-trifluoromethylphenoxy)-3-methylbutyl]pyrrolidine], the Ki at hNET [1] and at hSERT [4] was not above 10 nM each time. The IC50 on hSERT [2] and at hNET [3] was not above 10 nM in each case.

For the compound `CC(C)CC(Oc1cccc(Cl)c1Cl)C1CCNC1` (centres unmarked) [Example 10-22, 3-[1-(2,3-Dichlorophenoxy)-3-methylbutyl]pyrrolidine], the Ki on hNET [1] and on hSERT [4] was not above 10 nM each time. Moreover, the IC50 on hSERT [2] and at hNET [3] was not above 10 nM throughout.

For the compound `COc1cc(Cl)ccc1O[C@@H](CC(C)C)[C@H]1CCNC1` [Example 10-49, (S)-3-[(S)-1-(4-Chloro-2-methoxyphenoxy)-3-methylbutyl]pyrrolidine], the Ki on hNET [1] and at hSERT [4] was not above 10 nM throughout. Besides, the IC50 on hSERT [2] and at hNET [3] was not above 10 nM each time.

On to `CCC[C@H](Oc1cccc(Cl)c1C)[C@H]1CCNC1` [Example 4-54, (S)-3-[(S)-1-(3-Chloro-2-methylphenoxy)butyl]pyrrolidine], for which the Ki on hNET [1] and at hSERT [4] was not above 10 nM each time. The IC50 on hSERT [2] and on hNET [3] was not above 10 nM in each case.

As to `CCC[C@@H](Oc1ccc(Cl)cc1)[C@H]1CCNC1` [Example 4-2, (S)-3-[(R)-1-(4-Chlorophenoxy)butyl]pyrrolidine], the Ki at hNET [1] and on hSERT [4] was not above 10 nM each time. For the same compound, the IC50 is not above 10 nM at hSERT [2] and not above 100 nM at hNET [3].

For the compound `Fc1ccc(F)c(O[C@@H](C2CC2)[C@H]2CCNC2)c1Cl` [Example 16-61, (S)-3-[(S)-(2-Chloro-3,6-difluorophenoxy)cyclopropylmethyl]pyrrolidine], the Ki at hNET [1] and on hSERT [4] was not above 10 nM throughout. For the same compound, the IC50 at hSERT [2] was not above 100 nM; at hNET [3] it was not above 10 nM.

As to `CC(C)C[C@H](Oc1cccc(F)c1Cl)[C@H]1CCNC1` [Example 10-25, (S)-3-[(S)-1-(2-Chloro-3-fluorophenoxy)-3-methylbutyl]pyrrolidine], the Ki at hNET [1] and at hSERT [4] was not above 10 nM throughout. In addition, the IC50 on hSERT [2] and on hNET [3] was not above 10 nM throughout.

As for `CC(C)CC(Oc1c(F)ccc(Cl)c1Cl)C1CCNC1` (centres unmarked) [Example 10-64, 3-[1(2,3-Dichloro-6-fluorophenoxy)-3-methylbutyl]pyrrolidine], the Ki at hNET [1] and on hSERT [4] was not above 10 nM each time. The IC50 on hSERT [2] and on hNET [3] was not above 10 nM throughout.

On to `Cc1ccc(O[C@@H](C2CC2)[C@H]2CCNC2)c(C)c1` [Example 16-28, (S)-3-[(S)cyclopropyl-(2,4-dimethylphenoxy)-methyl]pyrrolidine], for which the inhibitory constant (Ki) on hNET [1] and on hSERT [4] was not above 10 nM in each case. Also, the IC50 on hSERT [2] and at hNET [3] was not above 10 nM throughout.

As for `Fc1ccc(O[C@@H](C2CC2)[C@H]2CCNC2)c(Cl)c1` [Example 16-22, (S)-3-[(S)-(2-Chloro-4-fluorophenoxy)cyclopropylmethyl]pyrrolidine], the Ki on hNET [1] and on hSERT [4] was not above 10 nM in each case. In addition, the IC50 at hSERT [2] was not above 100 nM; on hNET [3] it was not above 10 nM.

For `CC(C)C[C@H](Oc1c(F)cccc1Cl)[C@H]1CCNC1` [Example 10-52, (S)-3-[(S)-1-(2-Chloro-6-fluorophenoxy)-3-methylbutyl]pyrrolidine], the Ki on hNET [1] and on hSERT [4] was not above 10 nM throughout. The IC50 at hSERT [2] and on hNET [3] was not above 10 nM throughout.

For `CCc1cc(F)ccc1O[C@@H](C1CC1)[C@H]1CCNC1` [Example 16-34, (S)-3-[(S)cyclopropyl-(2-ethyl-4-fluorophenoxy)-methyl]pyrrolidine], the Ki on hNET [1] and at hSERT [4] was not above 10 nM in each case. Also, the IC50 at hSERT [2] and on hNET [3] was not above 10 nM each time.

Take `CC[C@H](Oc1c(F)cccc1Cl)[C@H]1CCNC1` [Example 2-25, (S)-3-[(S)-1-(2-Chloro-6-fluorophenoxy)-propyl]pyrrolidine]: the Ki at hNET [1] and on hSERT [4] was not above 10 nM throughout. The values for the IC50 on hSERT [2] and at hNET [3] were not above 100 nM and not above 10 nM, respectively.

Turning to `CCC[C@H](Oc1cccc(Cl)c1Cl)[C@H]1CCNC1` [Example 3, (S)-3-[(S)-1-(2,3-Dichlorophenoxy)butyl]pyrrolidine], the Ki at hNET [1] and at hSERT [4] was not above 10 nM in each case. Besides, the IC50 at hSERT [2] and at hNET [3] was not above 10 nM in each case.

Regarding `CC(C)[C@H](Oc1ccc(Cl)c(F)c1F)[C@H]1CCNC1` [Example 6-10, (S)-3-[(S)-1-(4-Chloro-2,3-difluorophenoxy)-2-methylpropyl]pyrrolidine], the Ki at hNET [1] and on hSERT [4] was not above 10 nM throughout. In addition, the IC50 on hSERT [2] and at hNET [3] was not above 10 nM each time.

On to `CC(C)CC(Oc1cc(F)cc(Cl)c1)C1CCNC1` (centres unmarked) [Example 10-82, 3-[1-(3-Chloro-5-fluorophenoxy)-3-methylbutyl]pyrrolidine], for which the Ki on hNET [1] and at hSERT [4] was not above 10 nM throughout. Besides, the IC50 at hSERT [2] and at hNET [3] was not above 10 nM throughout.

Regarding `CC(C)[C@H](Oc1cccc2ccccc12)[C@H]1CCNC1` [Example 14-5, (S)-3-[(S)-2-Methyl-1-(naphthalen-1-yloxy)propyl]pyrrolidine], the Ki on hNET [1] and on hSERT [4] was not above 10 nM in each case. The IC50 on hSERT [2] and at hNET [3] was not above 10 nM throughout.

Regarding `CC[C@@H](Oc1c(F)ccc(Cl)c1Cl)[C@H]1CCNC1` [Example 2-39, (S)-3-[(R)-1-(2,3-Dichloro-6-fluorophenoxy)propyl]pyrrolidine], the inhibitory constant (Ki) on hNET [1] and at hSERT [4] was not above 10 nM throughout. Also, the IC50 at hSERT [2] is not above 100 nM; at hNET [3], not above 10 nM.

`CSc1cccc(O[C@@H](C2CC2)[C@H]2CCNC2)c1` [Example 16-86, (S)-3-[(S)cyclopropyl-(3-methylsulfanylphenoxy)methyl]pyrrolidine]: the Ki on hNET [1] and on hSERT [4] was not above 10 nM throughout. Also, the figures for the IC50 on hSERT [2] and at hNET [3] were not above 100 nM and not above 10 nM, respectively.

For `Clc1ccc(O[C@@H](C2CC2)[C@H]2CCNC2)c(Cl)c1` [Example 16-19, (S)-3-[(S)cyclopropyl-(2,4-dichlorophenoxy)methyl]pyrrolidine], the Ki on hNET [1] and on hSERT [4] was not above 10 nM in each case. For the same compound, the IC50 on hSERT [2] and on hNET [3] was not above 10 nM in each case.

Take `Clc1cccc(O[C@H](C2CC2)[C@H]2CCNC2)c1Cl` [Example 16-7, (S)-3-[(R)cyclopropyl-(2,3-dichlorophenoxy)methyl]pyrrolidine]: the Ki on hNET [1] and on hSERT [4] was not above 10 nM each time. Besides, the IC50 at hSERT [2] and at hNET [3] was not above 10 nM in each case.
